{"source": "patent US9675074B2", "about": "“Methods to reduce cold damage in cereals” (Valent BioSciences Corporation, priority 2014, dated 2017)", "key": {"Corn [1]": {"test_system": "Corn", "assay": "Corn growth at 8° C. for 7 d after foliar GA3 application at V2", "type": "in vivo", "conditions": "120 mg/liter (0.2 mg/plant: 6.9 grams of GA3/acre)", "experimental": "Corn seeds were planted in 2 quart pots filled with standard medium and grown in the greenhouse. After the corn grew for 10 days at 24° C., it was at the V2 growth stage. The 10d post-sowing plants received a foliar application of 1.8 ml of 120 mg/liter GA3 plus 0.05% of a non-ionic surfactant. Immediately after spraying, both the GA3-treated and untreated control plants were moved to a growth chamber set at 8° C. with a 12:12 photoperiod. The height of the plants was measured one week after treatment."}, "Corn [2]": {"test_system": "Corn", "assay": "Greenhouse corn, foliar GA3 before a simulated freeze event (−2° C. for 8 hours), evaluated 8 days after freezing", "type": "in vivo", "experimental": "Corn seeds were planted in 18 cell flats filled with Sunshine 900 mix. Osmocote Plus (cal mag) 16-8-12 and Gypsum ([…]) were added (standard medium). The plants were watered and fertilized with 100 ppm of a commercially available 15-5-15 mixture plus 100 ppm calcium and 100 ppm magnesium, pH 6.5, as necessary and grown in the greenhouse. After the corn grew for 7 days, the plants received a foliar application of 1.8 ml of 120 mg/liter GA3 plus 0.05% non-ionic surfactant per plant. Sixteen hours later, the GA3-treated and untreated control plants were moved to a cold room with temperature at −2° C. for 8 hours to simulate a freeze event. Plants were then moved to the greenhouse (25° C.). The plant height, number of injured leaves, and damaged leaf area were evaluated at 8 days after freezing."}, "[3]": {"conditions": "120 mg/liter GA3, 1.8 ml per plant, 16 h before −2° C. for 8 h, 8 days after freezing"}, "[4]": {"conditions": "pre-frost GA3 treatment, 120 mg/liter"}}, "data": [{"molecule": "C=C1C[C@]23C[C@@]1(O)CC[C@H]2[C@@]12C=C[C@H](O)[C@@](C)(C(=O)O1)[C@H]2[C@@H]3C(=O)O", "note": "[GA3, gibberellic acid]", "values": [{"measurement": "Growth rate", "setting": "Corn [1]; 7 d at 8° C.", "value": 0.58, "unit": "cm/day"}, {"measurement": "Height at 7 d", "setting": "Corn [1]; 7 d at 8° C., 12:12 photoperiod", "value": 28.0, "unit": "cm"}, {"measurement": "Height at Application", "setting": "Corn [1]; baseline at application, V2", "value": 23.9, "unit": "cm"}, {"measurement": "Damaged leaf area", "setting": "Corn [2]; [3]", "value": 12.4, "unit": "%"}, {"measurement": "Number of injured leaf", "setting": "Corn [2]; [3]", "value": 2.6}, {"measurement": "Plant height", "setting": "Corn [2]; [3]", "value": 59.7, "unit": "cm"}, {"measurement": "Effect on number of injured leaves or damaged leaf area", "setting": "Corn [2]; [4]", "value": "did not reduce the number of injured leaves or damaged leaf area"}, {"measurement": "Recovery from frost damage", "setting": "Corn [2]; [4]", "value": "did help the corn recover from the frost damage"}]}]}
